Experimental data reported in ChEMBL document CHEMBL1159132, “A small library of peptidomimetics to systematically vary and test the effects of X1 constraints” (Bioorg Med Chem Lett, 1996).
Several values for one entry are separate records, joined by “and”; a condition that tells them apart may be missing. Identical values can stand only once.

Experiment: Inhibition of radiolabeled neuropeptide FF binding to neuropeptide FF receptors in rat spinal cord
Set-up: concentration or dose not given beside the values
Details: concentration not given here
With CC(C)C[C@H](NC(=O)[C@H](Cc1ccccc1)NC(=O)[C@@H](C)NC(=O)[C@H](C)NC(=O)[C@@H](N)Cc1ccc(O)cc1)C(=O)N[C@@H](CCCN=C(N)N)C(=O)N[C@@H](Cc1ccccc1)C(N)=O the inhibition was 58% and 65%.
For CC(C)C[C@H](NC(=O)[C@H](Cc1ccccc1)NC(=O)CNC(=O)[C@H](C)NC(=O)[C@@H](N)Cc1ccc(O)cc1)C(=O)N[C@@H](CCCN=C(N)N)C(=O)N[C@@H](Cc1ccccc1)C(N)=O, the inhibition was 60% and 76%.
In the case of CC(C)C[C@@H](NC(=O)[C@H](Cc1ccccc1)NC(=O)CNC(=O)[C@H](C)NC(=O)[C@@H](N)Cc1ccc(O)cc1)C(=O)N[C@@H](CCCN=C(N)N)C(=O)N[C@@H](Cc1ccccc1)C(N)=O, the inhibition is reported as 35% and 40%.
For CC(C)[C@H]1C[C@@]1(NC(=O)[C@H](Cc1ccccc1)NC(=O)[C@@H](C)NC(=O)[C@H](C)NC(=O)[C@@H](N)Cc1ccc(O)cc1)C(=O)N[C@@H](CCCN=C(N)N)C(=O)N[C@@H](Cc1ccccc1)C(N)=O, the inhibition was 32% and 35%.
With CC(C)C[C@@H](NC(=O)[C@H](Cc1ccccc1)NC(=O)CNC(=O)CNC(=O)[C@@H](N)Cc1ccc(O)cc1)C(=O)N[C@@H](CCCN=C(N)N)C(=O)N[C@@H](Cc1ccccc1)C(N)=O the inhibition was 48% and 31%.
CC(C)[C@H]1CC1(NC(=O)[C@H](Cc1ccccc1)NC(=O)[C@@H](C)NC(=O)[C@H](C)NC(=O)[C@@H](N)Cc1ccc(O)cc1)C(=O)N[C@@H](CCCN=C(N)N)C(=O)N[C@@H](Cc1ccccc1)C(N)=O (single isomer, unassigned; form 2) gave an inhibition of 27%.
Work on CC(C)[C@H]1CC1(NC(=O)[C@H](Cc1ccccc1)NC(=O)[C@@H](C)NC(=O)[C@H](C)NC(=O)[C@@H](N)Cc1ccc(O)cc1)C(=O)N[C@@H](CCCN=C(N)N)C(=O)N[C@@H](Cc1ccccc1)C(N)=O (single isomer, unassigned; form 1) yielded an inhibition of 32%.
For CC(C)C[C@@H](NC(=O)[C@H](Cc1ccccc1)NC(=O)[C@@H](C)NC(=O)CNC(=O)[C@@H](N)Cc1ccc(O)cc1)C(=O)N[C@@H](CCCN=C(N)N)C(=O)N[C@@H](Cc1ccccc1)C(N)=O, the inhibition was 28% and 48%.
With CC(C)[C@H]1C[C@@]1(NC(=O)[C@H](Cc1ccccc1)NC(=O)[C@@H](C)NC(=O)CNC(=O)[C@@H](N)Cc1ccc(O)cc1)C(=O)N[C@@H](CCCN=C(N)N)C(=O)N[C@@H](Cc1ccccc1)C(N)=O the inhibition was 22% and 34% and 43%.
With CC(C)C[C@H](NC(=O)[C@H](Cc1ccccc1)NC(=O)[C@@H](C)NC(=O)CNC(=O)[C@@H](N)Cc1ccc(O)cc1)C(=O)N[C@@H](CCCN=C(N)N)C(=O)N[C@@H](Cc1ccccc1)C(N)=O the inhibition was 81% and 75%.
For CC(C)C[C@@H](NC(=O)[C@H](Cc1ccccc1)NC(=O)[C@@H](C)NC(=O)[C@H](C)NC(=O)[C@@H](N)Cc1ccc(O)cc1)C(=O)N[C@@H](CCCN=C(N)N)C(=O)N[C@@H](Cc1ccccc1)C(N)=O, the inhibition was 69% and 63%.
In the case of CC(C)[C@@H]1C[C@]1(NC(=O)[C@H](Cc1ccccc1)NC(=O)[C@@H](C)NC(=O)[C@H](C)NC(=O)[C@@H](N)Cc1ccc(O)cc1)C(=O)N[C@@H](CCCN=C(N)N)C(=O)N[C@@H](Cc1ccccc1)C(N)=O, the inhibition is reported as 30% [middle of 4 runs].
With CC(C)C[C@H](NC(=O)[C@H](Cc1ccccc1)NC(=O)CNC(=O)CNC(=O)[C@@H](N)Cc1ccc(O)cc1)C(=O)N[C@@H](CCCN=C(N)N)C(=O)N[C@@H](Cc1ccccc1)C(N)=O the inhibition was 98% and 84%.
In the case of CC(C)[C@@H]1C[C@]1(NC(=O)[C@H](Cc1ccccc1)NC(=O)[C@@H](C)NC(=O)CNC(=O)[C@@H](N)Cc1ccc(O)cc1)C(=O)N[C@@H](CCCN=C(N)N)C(=O)N[C@@H](Cc1ccccc1)C(N)=O, the inhibition is reported as 29% [middle of 4 runs].
With CC(C)[C@H]1CC1(NC(=O)[C@H](Cc1ccccc1)NC(=O)CNC(=O)CNC(=O)[C@@H](N)Cc1ccc(O)cc1)C(=O)N[C@@H](CCCN=C(N)N)C(=O)N[C@@H](Cc1ccccc1)C(N)=O (single isomer, unassigned) the inhibition was 57%.
Work on CC(C)[C@H]1CC1(NC(=O)[C@H](Cc1ccccc1)NC(=O)[C@@H](C)NC(=O)CNC(=O)[C@@H](N)Cc1ccc(O)cc1)C(=O)N[C@@H](CCCN=C(N)N)C(=O)N[C@@H](Cc1ccccc1)C(N)=O (single isomer, unassigned) yielded an inhibition of 27%.
